In paper PMC3694096, “Development of Novel In Vivo Chemical Probes to Address CNS Protein Kinase Involvement in Synaptic Dysfunction” (PLoS ONE, 2013):
Like-named read-outs stand apart in the source and are kept apart here.

Legend:
Lyn(m) = target: T1, Lyn(m) (Mus musculus, UniProt P25911); test: Kinome profiler screen; assay type: biochemical; conditions: at 20,000 nM inhibitor; kinase activity remaining
T1 construct: purchased Millipore KinaseProfiler

Hck = target: T2, Hck (Homo sapiens, UniProt P08631); test: Kinome profiler screen; assay type: biochemical; conditions: at 20,000 nM inhibitor; kinase activity remaining
T2 construct: purchased Millipore KinaseProfiler

Ron = target: T3, Ron (Homo sapiens, UniProt Q04912); test: Kinome profiler screen; assay type: biochemical; conditions: at 20,000 nM inhibitor; kinase activity remaining
T3 construct: purchased Millipore KinaseProfiler

BrSK1 = target: T4, BrSK1 (Homo sapiens, UniProt Q8TDC3); test: Kinome profiler screen; assay type: biochemical
T4 construct: purchased Millipore KinaseProfiler

PI3K-C2γ = target: T5, PI3K-C2γ (Homo sapiens, UniProt O75747); test: Kinome profiler screen; assay type: biochemical; conditions: at 20,000 nM inhibitor; kinase activity remaining
T5 construct: purchased Millipore KinaseProfiler

PrKX = target: T6, PrKX (Homo sapiens, UniProt P51817); test: Kinome profiler screen; assay type: biochemical; conditions: at 20,000 nM inhibitor; kinase activity remaining
T6 construct: purchased Millipore KinaseProfiler

HIPK3 = target: T7, HIPK3 (Homo sapiens, UniProt Q9H422); test: Kinome profiler screen; assay type: biochemical; conditions: at 20,000 nM inhibitor; kinase activity remaining
T7 construct: purchased Millipore KinaseProfiler

PDK1 = target: T8, PDK1 (Homo sapiens, UniProt O15530); test: Kinome profiler screen; assay type: biochemical; conditions: at 20,000 nM inhibitor; kinase activity remaining
T8 construct: purchased Millipore KinaseProfiler

Ros = target: T9, Ros (Homo sapiens, UniProt P08922); test: Kinome profiler screen; assay type: biochemical; conditions: at 20,000 nM inhibitor; kinase activity remaining
T9 construct: purchased Millipore KinaseProfiler

CDK9/cyclin T1 = target: T10, CDK9/cyclin T1 (Homo sapiens, UniProt P50750); test: Kinome profiler screen; assay type: biochemical; conditions: at 20,000 nM inhibitor; kinase activity remaining
T10 construct: purchased Millipore KinaseProfiler

Aurora-A = target: T11, Aurora-A (Homo sapiens, UniProt O14965); test: Kinome profiler screen; assay type: biochemical; conditions: at 20,000 nM inhibitor; kinase activity remaining
T11 construct: purchased Millipore KinaseProfiler

MST3 = target: T12, MST3 (Homo sapiens, UniProt Q9Y6E0); test: Kinome profiler screen; assay type: biochemical; conditions: at 20,000 nM inhibitor; kinase activity remaining
T12 construct: purchased Millipore KinaseProfiler

RIPK2 = target: T13, RIPK2 (Homo sapiens, UniProt O43353); test: Kinome profiler screen; assay type: biochemical; conditions: at 20,000 nM inhibitor; kinase activity remaining
T13 construct: purchased Millipore KinaseProfiler

CK1γ2 = target: T14, CK1γ2 (Homo sapiens, UniProt P78368); test: Kinome profiler screen; assay type: biochemical; conditions: at 20,000 nM inhibitor; kinase activity remaining
T14 construct: purchased Millipore KinaseProfiler

EphA1 = target: T15, EphA1 (Homo sapiens, UniProt P21709); test: Kinome profiler screen; assay type: biochemical; conditions: at 20,000 nM inhibitor; kinase activity remaining
T15 construct: purchased Millipore KinaseProfiler

Rsk4 = target: T16, Rsk4 (Homo sapiens, UniProt Q9UK32); test: Kinome profiler screen; assay type: biochemical; conditions: at 20,000 nM inhibitor; kinase activity remaining
T16 construct: purchased Millipore KinaseProfiler

Abl (H396P) = target: T17, Abl (H396P) (Homo sapiens, UniProt P00519, H396P); test: Kinome profiler screen; assay type: biochemical; conditions: at 20,000 nM inhibitor; kinase activity remaining
T17 construct: purchased Millipore KinaseProfiler

CaMKIV = target: T18, CaMKIV (Homo sapiens, UniProt Q16566); test: Kinome profiler screen; assay type: biochemical; conditions: at 20,000 nM inhibitor; kinase activity remaining
T18 construct: purchased Millipore KinaseProfiler

Pyk2 = target: T19, Pyk2 (Homo sapiens, UniProt Q14289); test: Kinome profiler screen; assay type: biochemical; conditions: at 20,000 nM inhibitor; kinase activity remaining
T19 construct: purchased Millipore KinaseProfiler

PKCζ = target: T20, PKCζ (Homo sapiens, UniProt Q05513); test: Kinome profiler screen; assay type: biochemical; conditions: at 20,000 nM inhibitor; kinase activity remaining
T20 construct: purchased Millipore KinaseProfiler

Itk = target: T21, Itk (Homo sapiens, UniProt Q08881); test: Kinome profiler screen; assay type: biochemical; conditions: at 20,000 nM inhibitor; kinase activity remaining
T21 construct: purchased Millipore KinaseProfiler

TGFBR1 = target: T22, TGFBR1 (Homo sapiens, UniProt P36897); test: Kinome profiler screen; assay type: biochemical; conditions: at 20,000 nM inhibitor; kinase activity remaining
T22 construct: purchased Millipore KinaseProfiler

Met(M1268T) = target: T23, Met(M1268T) (Homo sapiens, UniProt P08581, M1250T); test: Kinome profiler screen; assay type: biochemical; conditions: at 20,000 nM inhibitor; kinase activity remaining
T23 construct: purchased Millipore KinaseProfiler

DAPK2 = target: T24, DAPK2 (Homo sapiens, UniProt Q9UIK4); test: Kinome profiler screen; assay type: biochemical; conditions: at 20,000 nM inhibitor; kinase activity remaining
T24 construct: purchased Millipore KinaseProfiler

Axl = target: T25, Axl (Homo sapiens, UniProt P30530); test: Kinome profiler screen; assay type: biochemical; conditions: at 20,000 nM inhibitor; kinase activity remaining
T25 construct: purchased Millipore KinaseProfiler

NLK = target: T26, NLK (Homo sapiens, UniProt Q9UBE8); test: biochemical
T26 sequence (Q9UBE8 1-527): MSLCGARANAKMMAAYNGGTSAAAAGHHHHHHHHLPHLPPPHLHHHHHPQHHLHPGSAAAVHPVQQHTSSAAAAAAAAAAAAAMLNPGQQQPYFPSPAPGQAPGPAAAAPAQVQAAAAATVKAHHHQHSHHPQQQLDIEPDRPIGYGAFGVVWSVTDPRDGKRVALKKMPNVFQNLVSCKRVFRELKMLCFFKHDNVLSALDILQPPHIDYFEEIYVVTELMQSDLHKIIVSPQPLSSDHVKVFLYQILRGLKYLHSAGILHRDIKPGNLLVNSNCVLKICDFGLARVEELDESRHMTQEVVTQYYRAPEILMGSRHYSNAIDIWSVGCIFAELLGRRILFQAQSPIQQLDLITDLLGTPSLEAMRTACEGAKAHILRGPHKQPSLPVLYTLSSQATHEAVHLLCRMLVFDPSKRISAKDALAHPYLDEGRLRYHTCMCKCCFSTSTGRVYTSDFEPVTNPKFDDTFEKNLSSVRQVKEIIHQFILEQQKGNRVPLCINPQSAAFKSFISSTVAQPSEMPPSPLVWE

ULK2 = target: T27, ULK2 (Homo sapiens, UniProt Q8IYT8); test: Kinome profiler screen; assay type: biochemical; conditions: at 20,000 nM inhibitor; kinase activity remaining
T27 construct: purchased Millipore KinaseProfiler

TLK2 = target: T28, TLK2 (Homo sapiens, UniProt Q86UE8); test: Kinome profiler screen; assay type: biochemical; conditions: at 20,000 nM inhibitor; kinase activity remaining
T28 construct: purchased Millipore KinaseProfiler

MSSK1 = target: T29, MSSK1 (Homo sapiens, UniProt Q9UPE1); test: Kinome profiler screen; assay type: biochemical; conditions: at 20,000 nM inhibitor; kinase activity remaining
T29 construct: purchased Millipore KinaseProfiler

MAPKAP-K2 = target: T30, MAPKAP-K2 (Homo sapiens, UniProt P49137); test: Kinome profiler screen; assay type: biochemical; conditions: at 20,000 nM inhibitor; kinase activity remaining
T30 construct: purchased Millipore KinaseProfiler

TAK1 = target: T31, TAK1 (Homo sapiens, UniProt O43318); test: Kinome profiler screen; assay type: biochemical; conditions: at 20,000 nM inhibitor; kinase activity remaining
T31 construct: purchased Millipore KinaseProfiler

MAPK1 = target: T32, MAPK1 (Homo sapiens, UniProt P27361); test: Kinome profiler screen; assay type: biochemical; conditions: at 20,000 nM inhibitor; kinase activity remaining
T32 construct: purchased Millipore KinaseProfiler

Src(1-530) = target: T33, Src(1-530) (Homo sapiens, UniProt P12931); test: Kinome profiler screen; assay type: biochemical; conditions: at 20,000 nM inhibitor; kinase activity remaining
T33 construct: purchased Millipore KinaseProfiler

NEK2 = target: T34, NEK2 (Homo sapiens, UniProt P51955); test: Kinome profiler screen; assay type: biochemical; conditions: at 20,000 nM inhibitor; kinase activity remaining
T34 construct: purchased Millipore KinaseProfiler

MST1 = target: T35, MST1 (Homo sapiens, UniProt Q13043); test: Kinome profiler screen; assay type: biochemical; conditions: at 20,000 nM inhibitor; kinase activity remaining
T35 construct: purchased Millipore KinaseProfiler

Rsk2 = target: T36, Rsk2 (Homo sapiens, UniProt P51812); test: Kinome profiler screen; assay type: biochemical; conditions: at 20,000 nM inhibitor; kinase activity remaining
T36 construct: purchased Millipore KinaseProfiler

Abl(T315I) = target: T37, Abl(T315I) (Homo sapiens, UniProt P00519, T315I); test: Kinome profiler screen; assay type: biochemical; conditions: at 20,000 nM inhibitor; kinase activity remaining
T37 construct: purchased Millipore KinaseProfiler

T13 sequence (O43353 whole entry): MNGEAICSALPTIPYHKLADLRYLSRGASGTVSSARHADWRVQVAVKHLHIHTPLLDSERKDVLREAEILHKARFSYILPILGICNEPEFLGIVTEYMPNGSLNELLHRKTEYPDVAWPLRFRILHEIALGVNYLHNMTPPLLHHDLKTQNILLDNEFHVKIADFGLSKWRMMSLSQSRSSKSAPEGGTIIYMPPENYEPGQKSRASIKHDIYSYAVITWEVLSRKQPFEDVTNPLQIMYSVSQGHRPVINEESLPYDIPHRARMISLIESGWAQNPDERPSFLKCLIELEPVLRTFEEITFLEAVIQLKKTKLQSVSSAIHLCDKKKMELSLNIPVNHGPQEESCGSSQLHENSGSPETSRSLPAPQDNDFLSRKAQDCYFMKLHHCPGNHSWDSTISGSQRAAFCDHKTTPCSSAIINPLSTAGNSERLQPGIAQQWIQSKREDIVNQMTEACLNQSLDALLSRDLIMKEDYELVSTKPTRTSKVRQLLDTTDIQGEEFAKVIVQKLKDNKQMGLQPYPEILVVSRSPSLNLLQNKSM
T8 sequence (O15530 whole entry): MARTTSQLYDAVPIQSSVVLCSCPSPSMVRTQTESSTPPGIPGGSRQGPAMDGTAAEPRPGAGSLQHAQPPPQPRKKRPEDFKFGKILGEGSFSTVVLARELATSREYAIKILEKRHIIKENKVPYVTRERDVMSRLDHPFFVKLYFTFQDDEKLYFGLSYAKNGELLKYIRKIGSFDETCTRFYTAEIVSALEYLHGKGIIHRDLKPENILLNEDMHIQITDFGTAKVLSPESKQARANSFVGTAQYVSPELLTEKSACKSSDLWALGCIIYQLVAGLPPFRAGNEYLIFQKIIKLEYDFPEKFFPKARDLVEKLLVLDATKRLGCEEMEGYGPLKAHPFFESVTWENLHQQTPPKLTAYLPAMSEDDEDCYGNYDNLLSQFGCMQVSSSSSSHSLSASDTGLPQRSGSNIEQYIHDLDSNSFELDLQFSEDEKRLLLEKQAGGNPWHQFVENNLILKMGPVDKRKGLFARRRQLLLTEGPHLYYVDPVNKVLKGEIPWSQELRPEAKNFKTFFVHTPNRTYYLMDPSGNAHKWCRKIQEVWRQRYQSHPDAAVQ
T21 sequence (Q08881 whole entry): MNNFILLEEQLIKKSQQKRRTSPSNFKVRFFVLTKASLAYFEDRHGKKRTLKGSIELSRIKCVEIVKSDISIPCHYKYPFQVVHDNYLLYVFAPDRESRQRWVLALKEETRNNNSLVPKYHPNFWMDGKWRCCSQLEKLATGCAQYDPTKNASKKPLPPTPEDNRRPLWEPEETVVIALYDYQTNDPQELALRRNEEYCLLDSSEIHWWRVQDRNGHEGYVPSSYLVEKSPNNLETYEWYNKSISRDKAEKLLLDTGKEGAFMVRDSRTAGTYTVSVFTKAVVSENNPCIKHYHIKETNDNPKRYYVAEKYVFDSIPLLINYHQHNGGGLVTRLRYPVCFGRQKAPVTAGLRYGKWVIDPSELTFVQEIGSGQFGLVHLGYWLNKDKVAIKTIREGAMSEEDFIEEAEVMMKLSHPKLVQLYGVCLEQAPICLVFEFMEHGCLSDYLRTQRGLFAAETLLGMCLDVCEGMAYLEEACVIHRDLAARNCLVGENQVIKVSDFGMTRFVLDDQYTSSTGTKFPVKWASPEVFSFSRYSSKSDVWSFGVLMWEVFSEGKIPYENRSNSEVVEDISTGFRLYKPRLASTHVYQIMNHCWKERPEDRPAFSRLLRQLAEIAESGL
T14 sequence (P78368 whole entry): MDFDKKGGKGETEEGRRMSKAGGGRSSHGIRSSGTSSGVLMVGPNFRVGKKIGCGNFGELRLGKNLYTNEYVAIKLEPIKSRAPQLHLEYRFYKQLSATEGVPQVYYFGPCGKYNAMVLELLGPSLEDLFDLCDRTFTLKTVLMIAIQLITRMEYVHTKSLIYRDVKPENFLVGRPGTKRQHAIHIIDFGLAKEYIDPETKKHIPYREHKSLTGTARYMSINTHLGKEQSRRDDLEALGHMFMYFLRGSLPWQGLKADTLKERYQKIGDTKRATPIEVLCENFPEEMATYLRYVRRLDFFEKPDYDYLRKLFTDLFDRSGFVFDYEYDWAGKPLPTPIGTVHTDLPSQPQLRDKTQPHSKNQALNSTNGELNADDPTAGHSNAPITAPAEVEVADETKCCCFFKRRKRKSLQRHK
T5 sequence (O75747 whole entry): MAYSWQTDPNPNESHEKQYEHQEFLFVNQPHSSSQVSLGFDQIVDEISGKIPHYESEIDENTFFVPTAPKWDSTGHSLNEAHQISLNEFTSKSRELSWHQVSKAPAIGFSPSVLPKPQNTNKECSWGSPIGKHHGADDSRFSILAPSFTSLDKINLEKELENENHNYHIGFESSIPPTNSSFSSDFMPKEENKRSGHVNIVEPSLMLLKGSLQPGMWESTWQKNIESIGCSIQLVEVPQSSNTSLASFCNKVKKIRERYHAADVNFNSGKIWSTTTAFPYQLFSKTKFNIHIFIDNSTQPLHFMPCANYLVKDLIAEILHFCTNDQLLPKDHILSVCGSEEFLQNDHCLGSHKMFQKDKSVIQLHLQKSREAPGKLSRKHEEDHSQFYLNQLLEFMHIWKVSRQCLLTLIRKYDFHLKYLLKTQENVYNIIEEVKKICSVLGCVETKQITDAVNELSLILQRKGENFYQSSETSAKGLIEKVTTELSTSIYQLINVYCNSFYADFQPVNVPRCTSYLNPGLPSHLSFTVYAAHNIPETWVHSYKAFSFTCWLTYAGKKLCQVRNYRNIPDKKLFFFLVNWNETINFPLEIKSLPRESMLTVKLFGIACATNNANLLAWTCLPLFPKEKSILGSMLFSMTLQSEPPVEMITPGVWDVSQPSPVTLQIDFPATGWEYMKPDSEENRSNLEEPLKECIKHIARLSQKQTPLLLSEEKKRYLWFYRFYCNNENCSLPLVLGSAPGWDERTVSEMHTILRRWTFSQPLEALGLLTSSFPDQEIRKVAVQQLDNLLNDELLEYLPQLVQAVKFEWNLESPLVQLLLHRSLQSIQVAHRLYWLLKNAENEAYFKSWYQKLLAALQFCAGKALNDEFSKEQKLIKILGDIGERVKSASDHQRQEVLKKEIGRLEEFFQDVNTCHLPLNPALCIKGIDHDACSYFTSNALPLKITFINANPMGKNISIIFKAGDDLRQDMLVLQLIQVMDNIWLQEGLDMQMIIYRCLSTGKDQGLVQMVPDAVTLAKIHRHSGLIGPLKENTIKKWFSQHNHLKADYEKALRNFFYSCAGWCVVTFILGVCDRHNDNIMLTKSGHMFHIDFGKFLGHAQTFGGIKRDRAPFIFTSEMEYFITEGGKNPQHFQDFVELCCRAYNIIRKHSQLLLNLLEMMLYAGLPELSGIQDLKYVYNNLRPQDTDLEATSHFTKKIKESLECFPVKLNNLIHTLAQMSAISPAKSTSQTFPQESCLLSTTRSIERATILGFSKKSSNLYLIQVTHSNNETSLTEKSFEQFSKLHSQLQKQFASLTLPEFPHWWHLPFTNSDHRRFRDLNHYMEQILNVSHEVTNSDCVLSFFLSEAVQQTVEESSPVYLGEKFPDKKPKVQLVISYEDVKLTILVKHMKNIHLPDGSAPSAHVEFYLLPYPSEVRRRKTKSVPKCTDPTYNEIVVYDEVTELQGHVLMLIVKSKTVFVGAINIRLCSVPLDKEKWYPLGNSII
T20 sequence (Q05513 whole entry): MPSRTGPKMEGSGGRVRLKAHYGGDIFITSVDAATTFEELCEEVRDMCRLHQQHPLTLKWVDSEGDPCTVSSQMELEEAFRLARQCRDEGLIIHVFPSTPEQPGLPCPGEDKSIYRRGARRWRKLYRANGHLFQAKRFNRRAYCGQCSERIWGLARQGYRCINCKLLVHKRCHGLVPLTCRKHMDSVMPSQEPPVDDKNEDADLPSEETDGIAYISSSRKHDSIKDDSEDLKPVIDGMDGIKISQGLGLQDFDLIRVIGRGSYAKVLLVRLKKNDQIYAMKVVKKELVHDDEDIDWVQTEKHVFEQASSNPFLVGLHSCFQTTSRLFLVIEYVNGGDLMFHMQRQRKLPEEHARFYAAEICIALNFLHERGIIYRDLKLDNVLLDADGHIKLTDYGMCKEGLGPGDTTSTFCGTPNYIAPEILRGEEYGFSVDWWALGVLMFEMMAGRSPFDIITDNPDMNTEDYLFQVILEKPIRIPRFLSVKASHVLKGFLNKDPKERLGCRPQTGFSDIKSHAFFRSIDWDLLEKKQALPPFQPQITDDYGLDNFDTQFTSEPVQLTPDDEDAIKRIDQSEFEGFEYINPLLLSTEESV
T4 sequence (Q8TDC3 whole entry): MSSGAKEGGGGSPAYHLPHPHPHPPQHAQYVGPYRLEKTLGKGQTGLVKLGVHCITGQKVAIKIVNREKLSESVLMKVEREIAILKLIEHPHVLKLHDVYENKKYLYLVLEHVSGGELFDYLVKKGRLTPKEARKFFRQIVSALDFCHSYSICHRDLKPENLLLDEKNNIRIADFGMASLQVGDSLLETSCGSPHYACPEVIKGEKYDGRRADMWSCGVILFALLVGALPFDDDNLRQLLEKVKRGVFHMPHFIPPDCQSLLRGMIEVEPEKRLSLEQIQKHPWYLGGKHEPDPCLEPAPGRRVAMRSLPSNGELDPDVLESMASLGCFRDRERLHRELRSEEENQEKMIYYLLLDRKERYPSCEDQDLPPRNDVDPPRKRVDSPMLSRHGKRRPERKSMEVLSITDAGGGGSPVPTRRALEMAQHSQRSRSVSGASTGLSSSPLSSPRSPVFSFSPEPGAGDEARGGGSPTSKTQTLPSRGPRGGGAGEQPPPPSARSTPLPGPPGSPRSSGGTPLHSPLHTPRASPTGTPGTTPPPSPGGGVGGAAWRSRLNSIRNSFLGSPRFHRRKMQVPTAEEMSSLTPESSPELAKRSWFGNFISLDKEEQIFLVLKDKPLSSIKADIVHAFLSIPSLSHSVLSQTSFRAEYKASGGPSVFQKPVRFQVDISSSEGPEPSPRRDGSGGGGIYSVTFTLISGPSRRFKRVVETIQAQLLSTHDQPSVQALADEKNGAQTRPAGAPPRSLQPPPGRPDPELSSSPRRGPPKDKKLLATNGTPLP

In the case of CN(C)c1cc(-c2ccncc2)c(-c2ccc3ccccc3c2)nn1 [MW108, N, N-dimethyl-6-(naphthalen-2-yl)-5-(pyridin-4-yl)pyridazin-3-amine], the activity at 20 µM (Lyn(m)) is reported as 97%, the activity at 20 µM (Hck) is reported as 93% and the activity at 20 µM (Ron) is reported as 91%. It also gave an activity at 20 µM (BrSK1) of 94%, an activity at 20 µM (PI3K-C2γ) of 50% and an activity at 20 µM (PrKX) of 109%. For the same compound, the activity at 20 µM (HIPK3) was 104%, the activity at 20 µM (PDK1) was 104% and the activity at 20 µM (Ros) was 87%. The activity at 20 µM (CDK9/cyclin T1) was 95%, the activity at 20 µM (Aurora-A) was 118% and the activity at 20 µM (MST3) was 98%. For the same compound, the activity at 20 µM (RIPK2) was 57%, the activity at 20 µM (CK1γ2) was 91% and the activity at 20 µM (EphA1) was 97%. For the same compound, the activity at 20 µM (Rsk4) was 96%, the activity at 20 µM (Abl (H396P)) was 94% and the activity at 20 µM (CaMKIV) was 100%. The activity at 20 µM (Pyk2) was 106%, the activity at 20 µM (PKCζ) was 103% and the activity at 20 µM (Itk) was 90%. The activity at 20 µM (TGFBR1) was 76%, the activity at 20 µM (Met(M1268T)) was 91% and the activity at 20 µM (DAPK2) was 101%. It also gave an activity at 20 µM (Axl) of 106%, an IC50 (NLK) of 1210 nM and an activity at 20 µM (NLK) of 20%. It also gave an activity at 20 µM (ULK2) of 100%, an activity at 20 µM (TLK2) of 99% and an activity at 20 µM (MSSK1) of 86%. For the same compound, the activity at 20 µM (MAPKAP-K2) was 103%, the activity at 20 µM (TAK1) was 102% and the activity at 20 µM (MAPK1) was 82%. For the same compound, the activity at 20 µM (Src(1-530)) was 101%, the activity at 20 µM (NEK2) was 96% and the activity at 20 µM (MST1) was 105%. The activity at 20 µM (Rsk2) was 92% and the activity at 20 µM (Abl(T315I)) was 91%.
In the case of CN(C)c1cc(-c2ccncc2)c(-c2cccc3ccccc23)nn1 [MW181, N,N-dimethyl-6-(naphthalen-1-yl)-5-(pyridin-4-yl)pyridazin-3-amine], the activity at 20 µM (Lyn(m)) is reported as 90%, the activity at 20 µM (Hck) is reported as 84% and the activity at 20 µM (Ron) is reported as 94%. For the same compound, the activity at 20 µM (BrSK1; at 20,000 nM inhibitor, kinase activity remaining, read-out: % Activity) was 94%, the activity at 20 µM (PI3K-C2γ) was 97% and the activity at 20 µM (PrKX) was 108%. The activity at 20 µM (HIPK3) was 95%, the activity at 20 µM (PDK1) was 105% and the activity at 20 µM (Ros) was 110%. The activity at 20 µM (CDK9/cyclin T1) was 104%, the activity at 20 µM (Aurora-A) was 113% and the activity at 20 µM (MST3) was 98%. For the same compound, the activity at 20 µM (RIPK2) was 84%, the activity at 20 µM (CK1γ2) was 96% and the activity at 20 µM (EphA1) was 76%. It also gave an activity at 20 µM (Rsk4) of 105%, an activity at 20 µM (Abl (H396P)) of 101% and an activity at 20 µM (CaMKIV) of 105%. The activity at 20 µM (Pyk2) was 101%, the activity at 20 µM (PKCζ) was 98% and the activity at 20 µM (Itk) was 91%. It also gave an activity at 20 µM (TGFBR1) of 113%, an activity at 20 µM (Met(M1268T)) of 95% and an activity at 20 µM (DAPK2) of 106%. It also gave an activity at 20 µM (Axl) of 99%, an IC50 (NLK) of 206 nM and an activity at 20 µM (ULK2) of 101%. It also gave an activity at 20 µM (TLK2) of 107%, an activity at 20 µM (MSSK1) of 100% and an activity at 20 µM (MAPKAP-K2) of 103%. It also gave an activity at 20 µM (TAK1) of 104%, an activity at 20 µM (MAPK1) of 90% and an activity at 20 µM (Src(1-530)) of 98%. The activity at 20 µM (NEK2) was 94%, the activity at 20 µM (MST1) was 94% and the activity at 20 µM (Rsk2) was 90%. The activity at 20 µM (Abl(T315I)) was 107%.
